Test results from patent US20250263370A1 (Tay Therapeutics Limited, priority 2022, published 2025).
Several values for one entry are separate records, joined by “and”; a condition that tells them apart may be missing. Identical values can stand only once. Marks after values point to notes of the source that are not given here.

How the values were obtained:
[1] = system: rat anti-collagen IgG1 antibodies; assay: Rat anti-collagen IgG1 antibodies in serum of CIA rats at day 21; format: in vivo, Lewis rat
Procedure: Blood was additionally collected from groups 1-7 via cardiac puncture following euthanasia on Day 21. […] Serum was divided into two separate tubes and stored at −75±15° C. One tube was used to analyze IgG1, and the other tube was reserved for additional analyses.

[2] = system: collagen-induced arthritis; assay: Histopathologic analysis of H&E-stained hind limbs of CIA rats; format: in vivo, Lewis rat; conditions: for pathologic observations after microscopic evaluation, overall: CIA rats, daily P.O. for 21 days
[3] = hind limbs, CIA induced, 8 animals examined

Structure (SMILES): C[C@@H]1C[C@H]2[C@@H]3CCC4=CC(=O)C=C[C@]4(C)[C@@]3(F)[C@@H](O)C[C@]2(C)[C@@]1(O)C(=O)CO [dexamethasone]
- Average rat anti-collagen IgG1 levels, Mean ([1]; Group 3 (CIA + Dex), day 21, group mean): 7833.69*
- Final Rat Anti-Collagen IgG1 Antibody Con. ([1]; Group 3 (CIA + Dexamethasone), day 21, per animal): 22019.88 units/ml and 5250.27 units/ml and 1296.14 units/ml and 2541.14 units/ml and 4553.59 units/ml and 7925.50 units/ml and 7346.16 units/ml
- Rat Anti-Collagen IgG1 Antibody Con. ([1]; before multiplying by Fold 2000, Group 3 (CIA + Dexamethasone), day 21, per animal): 11.01 units/ml and 2.63 units/ml and 0.65 units/ml and 1.27 units/ml and 5.87 units/ml and 2.28 units/ml and 3.96 units/ml and 3.67 units/ml
- pathologic observations after microscopic evaluation, overall [2]: No pathologic observations were noted
- pathologic observations after microscopic evaluation, overall ([2]; listed as Dexamethasone): no histopathological observations noted
- Number of animals: Erosion/Ulcer, cartilaginous, Marked [2, 3]: 0
- Number of animals: Erosion/Ulcer, cartilaginous, Mild [2, 3]: 0
- Number of animals: Erosion/Ulcer, cartilaginous, Minimal [2, 3]: 0
- Number of animals: Erosion/Ulcer, cartilaginous, Moderate [2, 3]: 0
- Number of animals: Granulation tissue, Marked [2, 3]: 0
- Number of animals: Granulation tissue, Mild [2, 3]: 0
- Number of animals: Granulation tissue, Minimal [2, 3]: 0
- Number of animals: Granulation tissue, Moderate [2, 3]: 0
- Number of animals: Increased bone, periosteum, Marked [2, 3]: 0
- Number of animals: Increased bone, periosteum, Mild [2, 3]: 0
- Number of animals: Increased bone, periosteum, Minimal [2, 3]: 0
- Number of animals: Increased bone, periosteum, Moderate [2, 3]: 0
- Number of animals: Increased eroded surface, bone, Marked [2, 3]: 0
- Number of animals: Increased eroded surface, bone, Mild [2, 3]: 0
- Number of animals: Increased eroded surface, bone, Minimal [2, 3]: 0
- Number of animals: Increased eroded surface, bone, Moderate [2, 3]: 0
- Number of animals: Mixed cell inflammation, Marked [2, 3]: 0
- Number of animals: Mixed cell inflammation, Mild [2, 3]: 0
- Number of animals: Mixed cell inflammation, Minimal [2, 3]: 0
- Number of animals: Mixed cell inflammation, Moderate [2, 3]: 0
- Number of animals: No Visible Lesions [2, 3]: 8
